According to patent US8206593B2, “Microfluidic chemical reaction circuits” (Fluidigm Corporation, priority 2004, dated 2012):

Tested on: tumor-bearing mouse (M-MSV/M-MuLV rhabdomyosarcoma)
Test: microPET/microCT imaging of a tumor-bearing mouse injected with [18F]FDG
Assay type: in vivo
Conditions: 272 microCi via tail vein; 1-h uptake and non-specific clearance; imaged 15 minutes; FDG produced in a microfluidic chip
Text: Mouse Model. The tumor model used was a strongly immunogenic, non-metastasizing retrovirally-induced rhabdomyosarcoma (M-MSV/M-MuLV) (Fletcher et al., 2002, Tetrahedron 58:4735). MSV is a replication-defective, acutely transforming retrovirus carried with helper activity provided by M-MuLV, which encodes the gag, pol, and env components that are necessary for cell infection and replication (Worz et al., 2001, Chemical Engineering Science 56:1029). Rhabdomyosarcomas develop at the intramuscular inoculation site after a short latency period (7-10 days) and regress over a period of 4-5 wk following the induction of a strong immune reaction in immunocompetent adult mice. These lesions were characterized by a mixture of virus-infected myocytes and a large infiltrate of lymphocytes, granulocytes, and macrophages. Both cellular and humoral immune responses induced are dependent on presentation by H-2 D^b alleles (Watts et al., 2003, Current Opinion in Chemical Biology 7:380). Rejection was mediated by CD8+ cytolytic T cells, which recognize peptides from the gag and env proteins of M-MuLV, and requires help from CD4+ T cells (Kobayashi et al., 2004, Science 304:1305; Chan et al., 2003, Nano Letters 3:199; Kawaguchi et al., 2005, Angewandte Chemie-International Edition 44:2413)
Mouse imaging. The tumor bearing mouse was injected with 272 microCi of FDG via tail vein. […]

## 2-deoxy-2-[^18F]fluoro-D-glucose [[^18F]FDG]
  Organs visible in microPET/microCT image: bladder, kidneys, heart, tumor and two lymph nodes
